According to ChEMBL document CHEMBL1909046, “DrugMatrix in vitro pharmacology data”:

Assays:
[1] = molecular target: T1, Alpha-2C adrenergic receptor (Homo sapiens, UniProt P18825); assay: DRUGMATRIX: Adrenergic Alpha-2C radioligand binding (ligand: [3H] MK-912); type: cell membranes, Sf9, Membrane; settings: sf9
T1 sequence (P18825 whole entry): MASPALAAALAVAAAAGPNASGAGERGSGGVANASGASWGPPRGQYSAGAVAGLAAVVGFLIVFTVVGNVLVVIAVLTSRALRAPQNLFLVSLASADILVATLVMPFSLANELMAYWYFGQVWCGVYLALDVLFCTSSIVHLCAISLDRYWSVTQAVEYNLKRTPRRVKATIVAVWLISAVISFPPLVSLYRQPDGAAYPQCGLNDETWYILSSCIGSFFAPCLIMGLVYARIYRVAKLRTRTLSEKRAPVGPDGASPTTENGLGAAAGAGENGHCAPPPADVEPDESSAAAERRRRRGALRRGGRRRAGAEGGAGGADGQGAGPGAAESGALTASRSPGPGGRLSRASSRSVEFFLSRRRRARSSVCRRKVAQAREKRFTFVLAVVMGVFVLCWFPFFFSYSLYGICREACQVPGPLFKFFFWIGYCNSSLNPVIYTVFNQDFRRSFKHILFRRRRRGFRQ

[2] = DRUGMATRIX: Atrial Natriuretic Factor (ANF) radioligand binding (ligand: [125I] ANF (rat)); type: cell membranes, Cavia porcellus, Dunkin-Hartley, Adrenal gland, Membrane; settings: Not Active = under 50% inhibition at 10 µM
[3] = molecular target: 5-hydroxytryptamine receptor 4 (Cavia porcellus, UniProt O70528); type: cell membranes, Dunkin-Hartley, Striatum, Membrane; further: in other assays of this panel Not Active means under 50% inhibition at 10 µM
Sequence of 5-hydroxytryptamine receptor 4 (O70528 whole entry): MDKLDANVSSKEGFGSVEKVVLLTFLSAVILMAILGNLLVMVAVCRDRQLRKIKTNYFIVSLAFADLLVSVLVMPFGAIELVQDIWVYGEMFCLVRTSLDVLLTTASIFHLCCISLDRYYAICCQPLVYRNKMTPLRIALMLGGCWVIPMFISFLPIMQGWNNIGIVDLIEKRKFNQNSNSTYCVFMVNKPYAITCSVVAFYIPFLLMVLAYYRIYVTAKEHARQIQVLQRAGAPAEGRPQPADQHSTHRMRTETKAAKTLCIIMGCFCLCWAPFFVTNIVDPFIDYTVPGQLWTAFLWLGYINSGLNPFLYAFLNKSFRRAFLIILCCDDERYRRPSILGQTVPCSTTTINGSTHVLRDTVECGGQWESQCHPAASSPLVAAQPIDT

[4] = molecular target: T2, C-X-C chemokine receptor type 1 (Homo sapiens, UniProt P25024); further: in other assays of this panel Not Active means under 50% inhibition at 10 µM
T2 sequence (P25024 whole entry): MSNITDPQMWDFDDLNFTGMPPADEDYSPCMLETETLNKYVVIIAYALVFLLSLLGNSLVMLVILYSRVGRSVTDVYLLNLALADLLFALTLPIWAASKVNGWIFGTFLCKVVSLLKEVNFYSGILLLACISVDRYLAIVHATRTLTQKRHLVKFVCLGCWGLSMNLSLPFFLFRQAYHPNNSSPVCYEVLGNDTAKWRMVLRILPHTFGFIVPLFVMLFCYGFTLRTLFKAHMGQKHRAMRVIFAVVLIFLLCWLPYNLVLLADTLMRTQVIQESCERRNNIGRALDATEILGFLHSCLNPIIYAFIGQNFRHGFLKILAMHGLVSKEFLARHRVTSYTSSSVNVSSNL

[5] = DRUGMATRIX: Leukotriene, BLT (LTB4) radioligand binding (ligand: [3H]LTB4); type: cell membranes, Membrane; settings: u-937; Not Active = under 50% inhibition at 10 µM
[6] = molecular target: T3, Cysteinyl leukotriene receptor 1 (Homo sapiens, UniProt Q9Y271); type: cell membranes, CHO-K1, Membrane; settings: cho-k1; further: in other assays of this panel Not Active means under 50% inhibition at 10 µM
T3 sequence (Q9Y271 whole entry): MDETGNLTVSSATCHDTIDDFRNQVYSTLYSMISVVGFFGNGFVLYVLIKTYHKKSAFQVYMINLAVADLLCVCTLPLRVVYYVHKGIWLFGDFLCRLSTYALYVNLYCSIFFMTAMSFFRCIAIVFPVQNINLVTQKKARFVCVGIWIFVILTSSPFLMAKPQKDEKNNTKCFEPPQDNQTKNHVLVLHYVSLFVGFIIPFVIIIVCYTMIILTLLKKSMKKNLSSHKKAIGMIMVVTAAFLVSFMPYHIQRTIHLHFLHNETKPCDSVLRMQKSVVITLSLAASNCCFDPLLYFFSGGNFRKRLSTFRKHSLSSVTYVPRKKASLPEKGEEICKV

Nitric oxide synthase 1 = Nitric oxide synthase 1 (Rattus norvegicus, UniProt P29476); type: tissue-based, Cerebellum; further: in other assays of this panel Not Active means under 50% inhibition at 10 µM
Sequence of Nitric oxide synthase 1 (P29476 whole entry): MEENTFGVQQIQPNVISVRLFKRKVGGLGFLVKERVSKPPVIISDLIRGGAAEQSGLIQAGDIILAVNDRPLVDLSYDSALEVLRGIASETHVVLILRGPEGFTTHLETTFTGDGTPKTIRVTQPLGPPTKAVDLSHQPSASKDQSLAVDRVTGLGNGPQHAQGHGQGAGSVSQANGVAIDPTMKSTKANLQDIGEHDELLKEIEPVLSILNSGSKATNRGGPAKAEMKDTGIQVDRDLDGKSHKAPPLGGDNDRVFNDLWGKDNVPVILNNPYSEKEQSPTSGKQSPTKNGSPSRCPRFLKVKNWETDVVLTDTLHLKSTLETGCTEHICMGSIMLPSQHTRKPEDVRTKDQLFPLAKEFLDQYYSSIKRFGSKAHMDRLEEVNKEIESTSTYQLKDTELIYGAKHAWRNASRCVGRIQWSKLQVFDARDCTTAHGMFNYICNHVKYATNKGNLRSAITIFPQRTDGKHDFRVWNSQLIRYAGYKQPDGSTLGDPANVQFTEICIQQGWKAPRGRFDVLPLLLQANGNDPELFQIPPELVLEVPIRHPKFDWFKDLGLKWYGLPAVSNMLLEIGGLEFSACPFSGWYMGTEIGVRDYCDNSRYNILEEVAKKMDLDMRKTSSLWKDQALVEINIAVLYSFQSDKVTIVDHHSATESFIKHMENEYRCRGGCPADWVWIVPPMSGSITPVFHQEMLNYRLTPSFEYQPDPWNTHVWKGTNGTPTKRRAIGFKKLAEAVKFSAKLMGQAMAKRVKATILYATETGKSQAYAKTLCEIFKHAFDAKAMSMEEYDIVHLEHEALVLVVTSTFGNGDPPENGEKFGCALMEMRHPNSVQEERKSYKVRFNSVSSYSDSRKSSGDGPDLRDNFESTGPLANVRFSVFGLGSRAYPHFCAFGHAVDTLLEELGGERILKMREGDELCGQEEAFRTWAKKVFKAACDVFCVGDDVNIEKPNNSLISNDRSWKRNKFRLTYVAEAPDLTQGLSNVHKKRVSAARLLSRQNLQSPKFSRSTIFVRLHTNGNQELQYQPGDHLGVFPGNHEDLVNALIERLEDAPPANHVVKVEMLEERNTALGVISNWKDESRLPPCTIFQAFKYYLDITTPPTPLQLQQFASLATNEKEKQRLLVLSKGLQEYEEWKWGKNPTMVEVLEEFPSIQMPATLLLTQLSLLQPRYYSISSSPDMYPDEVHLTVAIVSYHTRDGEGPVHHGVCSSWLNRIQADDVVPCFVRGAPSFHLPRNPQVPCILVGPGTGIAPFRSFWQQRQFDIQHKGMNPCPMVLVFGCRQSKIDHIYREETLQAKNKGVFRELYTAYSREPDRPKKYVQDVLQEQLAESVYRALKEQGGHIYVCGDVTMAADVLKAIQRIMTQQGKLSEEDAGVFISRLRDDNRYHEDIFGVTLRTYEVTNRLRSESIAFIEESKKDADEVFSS

[7] = DRUGMATRIX: Phosphodiesterase PDE3 enzyme inhibition (substrate: [3H]cAMP + cAMP); type: tissue-based, Homo sapiens; settings: platelet; Not Active = under 50% inhibition at 10 µM
[8] = DRUGMATRIX: Potassium Channel [KATP] radioligand binding (ligand: [3H] Glyburide); type: cell membranes, Membrane; settings: hit-t15; Not Active = under 50% inhibition at 10 µM
Caspase-1 = molecular target: T4, Caspase-1 (Homo sapiens, UniProt P29466); parameters: species or system Escherichia coli
T4 sequence (P29466 whole entry): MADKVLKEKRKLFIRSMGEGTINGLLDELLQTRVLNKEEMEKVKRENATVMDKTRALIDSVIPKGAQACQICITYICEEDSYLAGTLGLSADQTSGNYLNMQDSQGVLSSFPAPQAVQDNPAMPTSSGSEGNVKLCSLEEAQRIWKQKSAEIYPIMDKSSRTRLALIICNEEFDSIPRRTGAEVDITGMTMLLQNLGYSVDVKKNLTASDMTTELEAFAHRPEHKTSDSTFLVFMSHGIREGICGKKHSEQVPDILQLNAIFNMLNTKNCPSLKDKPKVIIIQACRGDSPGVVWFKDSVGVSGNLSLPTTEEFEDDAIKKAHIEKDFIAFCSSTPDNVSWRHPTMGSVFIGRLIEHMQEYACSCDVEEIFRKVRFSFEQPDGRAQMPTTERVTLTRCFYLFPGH

[9] = molecular target: Protein phosphatase 3 catalytic subunit alpha (Homo sapiens, UniProt Q08209); parameters: species or system Escherichia coli
[10] = molecular target: Tyrosine-protein kinase Lck (Homo sapiens, UniProt P06239); assay: DRUGMATRIX: Protein Tyrosine Kinase, LCK enzyme inhibition (substrate: Poly(Glu:Tyr)); type: cell-based, Insect cells; settings: insect cells; Not Active = under 50% inhibition at 10 µM
Sequence of Tyrosine-protein kinase Lck (P06239 whole entry): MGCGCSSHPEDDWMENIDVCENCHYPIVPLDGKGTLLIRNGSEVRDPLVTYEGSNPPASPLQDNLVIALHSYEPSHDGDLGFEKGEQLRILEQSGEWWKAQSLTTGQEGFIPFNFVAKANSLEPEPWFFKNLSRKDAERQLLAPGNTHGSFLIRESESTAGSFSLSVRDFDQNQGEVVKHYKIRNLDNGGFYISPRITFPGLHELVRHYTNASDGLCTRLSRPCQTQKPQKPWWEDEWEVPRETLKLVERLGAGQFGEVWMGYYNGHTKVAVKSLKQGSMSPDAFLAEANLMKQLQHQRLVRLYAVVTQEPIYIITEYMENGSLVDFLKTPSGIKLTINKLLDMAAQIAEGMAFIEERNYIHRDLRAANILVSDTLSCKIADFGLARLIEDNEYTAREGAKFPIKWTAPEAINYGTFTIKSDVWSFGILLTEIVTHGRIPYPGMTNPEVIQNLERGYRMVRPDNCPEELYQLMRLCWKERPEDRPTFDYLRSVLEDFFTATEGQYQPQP

Adenosine receptor A2a = Adenosine receptor A2a (Homo sapiens, UniProt P29274); assay: DRUGMATRIX: Adenosine A2A radioligand binding (ligand: […]); type: cell membranes, HEK293, Membrane; settings: hek293; Not Active = under 50% inhibition at 10 µM
Sequence of Adenosine receptor A2a (P29274 whole entry): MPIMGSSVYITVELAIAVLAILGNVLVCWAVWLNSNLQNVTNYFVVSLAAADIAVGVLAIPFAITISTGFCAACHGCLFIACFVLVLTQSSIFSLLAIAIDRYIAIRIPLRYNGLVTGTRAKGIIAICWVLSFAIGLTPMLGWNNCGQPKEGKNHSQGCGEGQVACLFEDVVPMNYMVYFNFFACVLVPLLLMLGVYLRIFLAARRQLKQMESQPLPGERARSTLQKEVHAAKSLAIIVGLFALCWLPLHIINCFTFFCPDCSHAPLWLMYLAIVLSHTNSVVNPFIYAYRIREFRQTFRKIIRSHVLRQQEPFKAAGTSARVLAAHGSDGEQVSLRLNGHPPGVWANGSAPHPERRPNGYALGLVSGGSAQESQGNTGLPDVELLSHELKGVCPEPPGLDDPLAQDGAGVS

Estrogen receptor beta = Estrogen receptor beta (Homo sapiens, UniProt Q92731); settings: sf9; further: in other assays of this panel Not Active means under 50% inhibition at 10 µM
Sequence of Estrogen receptor beta (Q92731 whole entry): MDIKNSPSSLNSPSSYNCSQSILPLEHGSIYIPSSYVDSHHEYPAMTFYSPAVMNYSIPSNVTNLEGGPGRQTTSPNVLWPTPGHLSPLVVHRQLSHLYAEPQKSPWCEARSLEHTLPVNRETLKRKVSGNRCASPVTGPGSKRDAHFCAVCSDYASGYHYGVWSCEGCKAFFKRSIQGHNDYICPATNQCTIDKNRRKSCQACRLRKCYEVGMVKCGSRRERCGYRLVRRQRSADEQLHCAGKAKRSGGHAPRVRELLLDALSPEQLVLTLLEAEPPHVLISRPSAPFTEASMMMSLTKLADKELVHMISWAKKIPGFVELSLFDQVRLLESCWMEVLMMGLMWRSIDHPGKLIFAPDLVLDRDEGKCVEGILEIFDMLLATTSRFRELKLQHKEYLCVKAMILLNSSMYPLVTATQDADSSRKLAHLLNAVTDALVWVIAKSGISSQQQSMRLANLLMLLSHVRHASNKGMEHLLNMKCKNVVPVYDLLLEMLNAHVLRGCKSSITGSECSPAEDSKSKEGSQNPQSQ

NCC[C@H](O)C(=O)N[C@@H]1C[C@H](N)[C@@H](O[C@H]2O[C@H](CN)[C@@H](O)[C@H](O)[C@H]2O)[C@H](O)[C@H]1O[C@H]1O[C@H](CO)[C@@H](O)[C@H](N)[C@H]1O [AMIKACIN]
Not Active: IC50 [1] | IC50 [2] | Ki [2] | IC50 [3] | IC50 [4] | IC50 [5] | Ki [5] | IC50 [6] | IC50 (Nitric oxide synthase 1) | IC50 [7] | Ki [7] | IC50 [8] | Ki [8] | IC50 (Caspase-1) | IC50 [9] | IC50 [10] | IC50 (Adenosine receptor A2a) | IC50 (Estrogen receptor beta)

CCOC(=O)OC(C)OC1=C(C(=O)Nc2ccccn2)N(C)S(=O)(=O)c2ccccc21 (configuration not stated) [AMPIROXICAM]
Not Active: IC50 [1] | IC50 [2] | Ki [2] | IC50 [3] | IC50 [4] | IC50 [5] | Ki [5] | IC50 [6] | IC50 (Nitric oxide synthase 1) | IC50 [7] | Ki [7] | IC50 [8] | Ki [8] | IC50 (Caspase-1) | IC50 [9] | IC50 [10] | IC50 (Adenosine receptor A2a) | IC50 (Estrogen receptor beta)

N#C[C@H](O[C@@H]1O[C@H](CO[C@@H]2O[C@H](CO)[C@@H](O)[C@H](O)[C@H]2O)[C@@H](O)[C@H](O)[C@H]1O)c1ccccc1 [AMYGDALIN]
Not Active: IC50 [1] | IC50 [2] | Ki [2] | IC50 [3] | IC50 [4] | IC50 [5] | Ki [5] | IC50 [6] | IC50 (Nitric oxide synthase 1) | IC50 [7] | Ki [7] | IC50 [8] | Ki [8] | IC50 (Caspase-1) | IC50 [9] | IC50 [10] | IC50 (Adenosine receptor A2a) | IC50 (Estrogen receptor beta)

C=C1[C@@H]2CCC3[C@@](CC[C@@H]4[C@H](C(=O)O)C[C@@H](O[C@@H]5O[C@H](CO)[C@@H](OS(=O)(=O)[O-])[C@H](OS(=O)(=O)[O-])[C@H]5OC(=O)CC(C)C)C[C@@]34C)(C2)[C@@H]1O.[K+].[K+] (some centres not stated) [ATRACTYLOSIDE]
Not Active: IC50 [1] | IC50 [2] | Ki [2] | IC50 [3] | IC50 [4] | IC50 [5] | Ki [5] | IC50 [6] | IC50 (Nitric oxide synthase 1) | IC50 [7] | Ki [7] | IC50 [8] | Ki [8] | IC50 (Caspase-1) | IC50 [9] | IC50 [10] | IC50 (Adenosine receptor A2a) | IC50 (Estrogen receptor beta)

Cn1cnc([N+](=O)[O-])c1Sc1ncnc2nc[nH]c12 [AZATHIOPRINE]
Not Active: IC50 [1] | IC50 [2] | Ki [2] | IC50 [3] | IC50 [4] | IC50 [5] | Ki [5] | IC50 [6] | IC50 (Nitric oxide synthase 1) | IC50 [7] | Ki [7] | IC50 [8] | Ki [8] | IC50 (Caspase-1) | IC50 [9] | IC50 [10] | IC50 (Adenosine receptor A2a) | IC50 (Estrogen receptor beta)

CC1(C)S[C@@H]2[C@H](NC(=O)[C@H](NC(=O)N3CCNC3=O)c3ccccc3)C(=O)N2[C@H]1C(=O)O [AZLOCILLIN]
Not Active: IC50 [1] | IC50 [2] | Ki [2] | IC50 [3] | IC50 [4] | IC50 [5] | Ki [5] | IC50 [6] | IC50 (Nitric oxide synthase 1) | IC50 [7] | Ki [7] | IC50 [8] | Ki [8] | IC50 (Caspase-1) | IC50 [9] | IC50 [10] | IC50 (Adenosine receptor A2a) | IC50 (Estrogen receptor beta)

CCOC(=O)c1ccc(N)cc1 [BENZOCAINE]
Not Active: IC50 [1] | IC50 [2] | Ki [2] | IC50 [3] | IC50 [4] | IC50 [5] | Ki [5] | IC50 [6] | IC50 (Nitric oxide synthase 1) | IC50 [7] | Ki [7] | IC50 [8] | Ki [8] | IC50 (Caspase-1) | IC50 [9] | IC50 [10] | IC50 (Adenosine receptor A2a) | IC50 (Estrogen receptor beta)

OCc1ccccc1 [BENZYL ALCOHOL]
Not Active: IC50 [1] | IC50 [2] | Ki [2] | IC50 [3] | IC50 [4] | IC50 [5] | Ki [5] | IC50 [6] | IC50 (Nitric oxide synthase 1) | IC50 [7] | Ki [7] | IC50 [8] | Ki [8] | IC50 (Caspase-1) | IC50 [9] | IC50 [10] | IC50 (Adenosine receptor A2a) | IC50 (Estrogen receptor beta)

CCCC[C@@H](CC)COC(=O)c1ccccc1C(=O)OC[C@@H](CC)CCCC [BIS(2-ETHYLHEXYL)PHTHALATE]
Not Active: IC50 [1] | IC50 [2] | Ki [2] | IC50 [3] | IC50 [4] | IC50 [5] | Ki [5] | IC50 [6] | IC50 (Nitric oxide synthase 1) | IC50 [7] | Ki [7] | IC50 [8] | Ki [8] | IC50 (Caspase-1) | IC50 [9] | IC50 [10] | IC50 (Adenosine receptor A2a) | IC50 (Estrogen receptor beta)
